Read-outs that look alike come from different tables or passages of the source. *1 amine or outer side, *2 acyl side, *3 side chain or, on linkers, in order; H or OH if unused. Where a SMILES comes first, the peptide text is derived from it. Side-chain parts run from the residue outwards. [ ]: non-standard residue; d: D form. The star is where a group is joined. Nonadecanoyl(19-PO3H2) = O=C(CCCCCCCCCCCCCCCCCCP(=O)(O)O)*; γGlu = O=C(O)[C@H](CCC(=O)[*:2])N[*:1]; AEEA = NCCOCCOCC(=O)O; Aib = CC(C)(N)C(=O)O

Series [1] deals with human recombinant GLP-1 receptor (Homo sapiens, UniProt P43220). The series can be described thus: TagLite binding assay, GLP-1 receptor, without and with 2% HSA. An excerpt: (§1) Binding data for Compounds 15-25, for two human recombinant G protein coupled receptors, GLP-1 and GIP, was obtained using […]® binding assay and Epics Therapeutics cell lines. The binding assay was repeated in the presence of 2% human serum albumin (HSA). Compounds 16, 21, and 22 have an HSA ratio for the GLP-1 receptor of 7.1, 7.6, and 7.8, respectively. Compounds 15, 18, and 23 have an HSA ratio for the GIP receptor of 7.3, 4.3, and 6.4, respectively. A lower HSA ratio indicates greater binding affinity for the receptor than for albumin when compared to a compound with a greater HSA ratio.

The target in series [2] is T1, human recombinant GIP receptor (Homo sapiens, UniProt P48546).
T1 sequence (P48546 22-466): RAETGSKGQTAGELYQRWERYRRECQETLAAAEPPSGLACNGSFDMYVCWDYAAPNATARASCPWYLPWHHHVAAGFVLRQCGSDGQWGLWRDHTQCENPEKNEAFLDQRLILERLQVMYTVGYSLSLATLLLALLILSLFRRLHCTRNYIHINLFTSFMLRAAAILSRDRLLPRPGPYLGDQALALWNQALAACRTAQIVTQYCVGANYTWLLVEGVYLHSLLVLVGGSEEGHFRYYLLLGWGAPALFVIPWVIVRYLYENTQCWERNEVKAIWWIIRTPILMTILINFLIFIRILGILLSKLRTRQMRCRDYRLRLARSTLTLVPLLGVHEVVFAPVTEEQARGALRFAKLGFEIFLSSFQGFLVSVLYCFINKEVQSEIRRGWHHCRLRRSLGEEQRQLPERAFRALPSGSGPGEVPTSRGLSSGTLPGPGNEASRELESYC
In words: TagLite binding assay, GIP receptor, without and with 2% HSA.
Source text: as §1

On the set-up of series [3]: species or system cynomolgus monkeys. The note with it: cynomolgus monkey, in vivo. The procedure:
Subcutaneous (SC) dosing of the compounds in a vehicle of 0.1% bovine serum albumin in phosphate buffered saline solution was performed with male cynomolgus monkeys. […] Samples were obtained at 1, 4, 8, 12, 24, 48, 72, 96, 120, 168, 192, 240 and 336 hours after the single dose was administered.

Sequence of human recombinant GLP-1 receptor (P43220 24-463): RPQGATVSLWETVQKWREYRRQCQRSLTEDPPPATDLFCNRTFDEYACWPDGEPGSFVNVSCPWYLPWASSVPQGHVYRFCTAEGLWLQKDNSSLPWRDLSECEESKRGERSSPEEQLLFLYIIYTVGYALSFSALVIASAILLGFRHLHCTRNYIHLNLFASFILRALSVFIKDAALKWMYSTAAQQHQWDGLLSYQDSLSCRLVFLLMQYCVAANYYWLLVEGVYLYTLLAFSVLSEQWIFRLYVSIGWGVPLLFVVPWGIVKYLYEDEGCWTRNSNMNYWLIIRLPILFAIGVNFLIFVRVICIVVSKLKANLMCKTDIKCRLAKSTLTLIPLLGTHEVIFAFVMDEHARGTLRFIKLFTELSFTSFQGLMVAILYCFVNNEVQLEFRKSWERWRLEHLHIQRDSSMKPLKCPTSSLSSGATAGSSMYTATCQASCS

For `CC[C@H](C)[C@H](NC(=O)[C@H](CCCCN)NC(=O)[C@H](CC(=O)O)NC(=O)[C@H](CC(C)C)NC(=O)[C@H](Cc1ccccc1)NC(=O)[C@@H](NC(=O)[C@H](CO)NC(=O)[C@H](Cc1ccc(O)cc1)NC(=O)[C@H](CC(=O)O)NC(=O)[C@H](CO)NC(=O)[C@@H](NC(=O)[C@H](Cc1ccccc1)NC(=O)[C@@H](NC(=O)CNC(=O)[C@H](CCC(=O)O)NC(=O)C(C)(C)NC(=O)[C@@H](N)Cc1ccc(O)cc1)[C@@H](C)O)[C@@H](C)O)[C@@H](C)CC)C(=O)N[C@@H](C)C(=O)N[C@@H](CCC(N)=O)C(=O)N[C@@H](CCCCNC(=O)COCCOCCNC(=O)COCCOCCNC(=O)CC[C@H](NC(=O)CCCCCCCCCCCCCCCCCCP(=O)(O)O)C(=O)O)C(=O)N[C@@H](C)C(=O)N[C@@H](Cc1ccccc1)C(=O)N[C@H](C(=O)N[C@@H](CC(N)=O)C(=O)N[C@@H](Cc1c[nH]c2ccccc12)C(=O)N[C@@H](CC(C)C)C(=O)N[C@H](C(=O)N[C@@H](C)C(=O)NCC(=O)NCC(=O)N1CCC[C@H]1C(=O)N[C@@H](CO)C(=O)N[C@@H](CO)C(=O)NCC(=O)N[C@@H](C)C(=O)N1CCC[C@H]1C(=O)N1CCC[C@H]1C(=O)N1CCC[C@H]1C(=O)N[C@@H](CO)C(N)=O)[C@@H](C)CC)C(C)C` [Compound 21] (H-Y[Aib]EGTFTSDYSIFLDKIAQK([AEEA-AEEA-γGlu-Nonadecanoyl(19-PO3H2)])AFVNWLIAGGPSSGAPPPS-NH2), the IC50 in series [1] (2% human serum albumin, read-out: GLP-1 receptor IC50 2% HSA) is 1100 nM. The IC50 in series [1] (no HSA, read-out: GLP-1 receptor IC50 No HSA) came out at 144 nM. Also, the IC50 in series [2] (2% human serum albumin, read-out: GIP receptor IC50 2% HSA) was 5280 nM. Moreover, the IC50 in series [2] (no HSA, read-out: GIP receptor IC50 No HSA) was found to be 561 nM. In addition, in series [3] (sc, 0.2 mg/kg), the AUC(0-inf) came out at 54 µg·h/mL, the AUC(0-t) was found to be 49.4 µg·h/mL, the concentration peaked (Cmax) at 339 ng/mL and the Tmax turned out to be 48 h. Besides, in series [3] (sc, 0.2 mg/kg), the half-life is 90.5 h and the “mean half life longer compared to tirzepatide” value is “at least 50%”.

For `CC[C@H](C)[C@H](NC(=O)[C@H](CC(C)C)NC(=O)[C@H](Cc1c[nH]c2ccccc12)NC(=O)[C@H](CCC(N)=O)NC(=O)[C@@H](NC(=O)[C@H](Cc1ccccc1)NC(=O)[C@H](C)NC(=O)[C@H](CCCCNC(=O)COCCOCCNC(=O)COCCOCCNC(=O)CC[C@H](NC(=O)CCCCCCCCCCCCCCCCCCP(=O)(O)O)C(=O)O)NC(=O)[C@H](CCC(N)=O)NC(=O)[C@H](C)NC(=O)[C@@H](NC(=O)[C@H](CCCNC(=N)N)NC(=O)[C@H](CC(=O)O)NC(=O)[C@H](CC(C)C)NC(=O)C(C)(C)NC(=O)[C@@H](NC(=O)[C@H](CO)NC(=O)[C@H](Cc1ccc(O)cc1)NC(=O)[C@H](CC(=O)O)NC(=O)[C@H](CO)NC(=O)[C@@H](NC(=O)[C@H](Cc1ccccc1)NC(=O)[C@@H](NC(=O)CNC(=O)[C@H](CCC(=O)O)NC(=O)C(C)(C)NC(=O)[C@@H](N)Cc1ccc(O)cc1)[C@@H](C)O)[C@@H](C)O)[C@@H](C)CC)[C@@H](C)CC)C(C)C)C(=O)N[C@@H](C)C(=O)NCC(=O)NCC(=O)N1CCC[C@H]1C(=O)N[C@@H](CO)C(=O)N[C@@H](CO)C(=O)NCC(=O)N[C@@H](C)C(=O)N1CCC[C@H]1C(=O)N1CCC[C@H]1C(=O)N1CCC[C@H]1C(=O)N[C@@H](CO)C(N)=O` [Compound 16] (H-Y[Aib]EGTFTSDYSI[Aib]LDRIAQK([AEEA-AEEA-γGlu-Nonadecanoyl(19-PO3H2)])AFVQWLIAGGPSSGAPPPS-NH2), in series [3] (sc, 0.2 mg/kg), the AUC(0-inf) was found to be 144 µg·h/mL, the AUC(0-t) was 138 µg·h/mL, the Cmax was found to be 1570 ng/mL and the Tmax amounted to 9.33 h. The half-life in series [3] (sc, 0.2 mg/kg) was 70.1 h.

Regarding `CC[C@H](C)[C@H](NC(=O)[C@H](CC(C)C)NC(=O)[C@H](Cc1c[nH]c2ccccc12)NC(=O)[C@H](CCC(N)=O)NC(=O)[C@@H](NC(=O)[C@H](Cc1ccccc1)NC(=O)[C@H](C)NC(=O)[C@H](CCCCNC(=O)COCCOCCNC(=O)COCCOCCNC(=O)CC[C@H](NC(=O)CCCCCCCCCCCCCCCCCCC(=O)O)C(=O)O)NC(=O)[C@H](CCC(N)=O)NC(=O)[C@H](C)NC(=O)[C@@H](NC(=O)[C@H](CCCCN)NC(=O)[C@H](CC(=O)O)NC(=O)[C@H](CC(C)C)NC(=O)C(C)(C)NC(=O)[C@@H](NC(=O)[C@H](CO)NC(=O)[C@H](Cc1ccc(O)cc1)NC(=O)[C@H](CC(=O)O)NC(=O)[C@H](CO)NC(=O)[C@@H](NC(=O)[C@H](Cc1ccccc1)NC(=O)[C@@H](NC(=O)CNC(=O)[C@H](CCC(=O)O)NC(=O)C(C)(C)NC(=O)[C@@H](N)Cc1ccc(O)cc1)[C@@H](C)O)[C@@H](C)O)[C@@H](C)CC)[C@@H](C)CC)C(C)C)C(=O)N[C@@H](C)C(=O)NCC(=O)NCC(=O)N1CCC[C@H]1C(=O)N[C@@H](CO)C(=O)N[C@@H](CO)C(=O)NCC(=O)N[C@@H](C)C(=O)N1CCC[C@H]1C(=O)N1CCC[C@H]1C(=O)N1CCC[C@H]1C(=O)N[C@@H](CO)C(N)=O` [TRZ, Tirzepatide, reference compound], in series [3] (sc, 0.2 mg/kg), the AUC(0-inf) was found to be 242 µg·h/mL, the AUC(0-t) was found to be 237 µg·h/mL, the Cmax was determined as 2250 ng/mL and the Tmax amounted to 40 h. This molecule also gave a half-life in series [3] (sc, 0.2 mg/kg) of 57.1 h.

Turning to `CC[C@H](C)[C@H](NC(=O)[C@H](CC(C)C)NC(=O)[C@H](Cc1c[nH]c2ccccc12)NC(=O)[C@H](CCC(N)=O)NC(=O)[C@@H](NC(=O)[C@H](Cc1ccccc1)NC(=O)[C@H](C)NC(=O)[C@H](CCCCNC(=O)COCCOCCNC(=O)COCCOCCNC(=O)CC[C@H](NC(=O)CCCCCCCCCCCCCCCCCCP(=O)(O)O)C(=O)O)NC(=O)[C@H](CCC(N)=O)NC(=O)[C@H](C)NC(=O)[C@@H](NC(=O)[C@H](CCCCN)NC(=O)[C@H](CC(=O)O)NC(=O)[C@H](CC(C)C)NC(=O)C(C)(C)NC(=O)[C@@H](NC(=O)[C@H](CO)NC(=O)[C@H](Cc1ccc(O)cc1)NC(=O)[C@H](CC(=O)O)NC(=O)[C@H](CO)NC(=O)[C@@H](NC(=O)[C@H](Cc1ccccc1)NC(=O)[C@@H](NC(=O)CNC(=O)[C@H](CCC(=O)O)NC(=O)C(C)(C)NC(=O)[C@@H](N)Cc1ccc(O)cc1)[C@@H](C)O)[C@@H](C)O)[C@@H](C)CC)C(C)C)C(C)C)C(=O)N[C@@H](CCCNC(=N)N)C(=O)NCC(=O)NCC(=O)N1CCC[C@H]1C(=O)N[C@@H](CO)C(=O)N[C@@H](CO)C(=O)NCC(=O)N[C@@H](C)C(=O)N1CCC[C@H]1C(=O)N1CCC[C@H]1C(=O)N1CCC[C@H]1C(=O)N[C@@H](CO)C(N)=O` [Compound 25] (H-Y[Aib]EGTFTSDYSI[Aib]LDKVAQK([AEEA-AEEA-γGlu-Nonadecanoyl(19-PO3H2)])AFVQWLIRGGPSSGAPPPS-NH2), in series [3], the AUC(0-inf) stood at 287 µg·h/mL, the AUC(0-t) turned out to be 272 µg·h/mL, the Cmax came out at 1570 ng/mL and the Tmax stood at 24 h. Further, the half-life in series [3] is 117 h.

Take `CC[C@H](C)[C@H](NC(=O)[C@H](CC(C)C)NC(=O)[C@H](Cc1c[nH]c2ccccc12)NC(=O)[C@H](CC(N)=O)NC(=O)[C@@H](NC(=O)[C@H](Cc1ccccc1)NC(=O)[C@H](C)NC(=O)[C@H](CCC(N)=O)NC(=O)[C@H](CCCCNC(=O)COCCOCCNC(=O)COCCOCCNC(=O)CC[C@H](NC(=O)CCCCCCCCCCCCCCCCCCP(=O)(O)O)C(=O)O)NC(=O)[C@H](C)NC(=O)[C@@H](NC(=O)[C@H](CCCCN)NC(=O)[C@H](CC(=O)O)NC(=O)[C@H](CC(C)C)NC(=O)C(C)(C)NC(=O)[C@@H](NC(=O)[C@H](CO)NC(=O)[C@H](Cc1ccc(O)cc1)NC(=O)[C@H](CC(=O)O)NC(=O)[C@H](CO)NC(=O)[C@@H](NC(=O)[C@H](Cc1ccccc1)NC(=O)[C@@H](NC(=O)CNC(=O)[C@H](CCC(=O)O)NC(=O)C(C)(C)NC(=O)[C@@H](N)Cc1ccc(O)cc1)[C@@H](C)O)[C@@H](C)O)[C@@H](C)CC)[C@@H](C)CC)C(C)C)C(=O)N[C@@H](C)C(=O)NCC(=O)NCC(=O)N1CCC[C@H]1C(=O)N[C@@H](CO)C(=O)N[C@@H](CO)C(=O)NCC(=O)N[C@@H](C)C(=O)N1CCC[C@H]1C(=O)N1CCC[C@H]1C(=O)N1CCC[C@H]1C(=O)N[C@@H](CO)C(N)=O` [Compound 22] (H-Y[Aib]EGTFTSDYSI[Aib]LDKIAK([AEEA-AEEA-γGlu-Nonadecanoyl(19-PO3H2)])QAFVNWLIAGGPSSGAPPPS-NH2): in series [3] (sc, 0.2 mg/kg), the AUC(0-inf) is 510 µg·h/mL, the AUC(0-t) amounted to 417 µg·h/mL, the Cmax was determined as 2380 ng/mL and the Tmax worked out at 33.3 h. Moreover, in series [3] (sc, 0.2 mg/kg), the half-life was 137 h, the “mean half life as compared to tirzepatide (in words)” value is reported as “more than twice an long as compared to tirzepatide” and the “mean half life longer compared to tirzepatide” value is “at least 50%”.

For the origin of these results see patent US12421282B2, “Compositions and methods for the treatment of metabolic and liver disorders” (priority 2021, dated 2025).
